The text below walks through data of US20090004162A1, “Hecgf-1 Related Polymorphisms and Applications Thereof” (priority 2005, published 2009).

Assay [1] relates to CTL clone RDR173. The assay is described as follows: IFN-γ ELISA: recognition of peptide-pulsed donor-derived EBV-LCL cells by CTL clone RDR173. The format is cell-based, human. The settings on record: peptide pulsed on donor-derived EBV-LCL cells 2 h 37° C., coculture 24 h. As for the experimental part:
FIG. 5. CTL clone RDR173 recognizes the minimal epitope RPHAIRRPLAL. (a) Overlapping 9-, 10- and 11-mer peptides (1 μg/ml) were pulsed on donor-derived EBV-LCL cells for 2 h at 37° C. Peptide-pulsed EBV-LCLs were cocultured with CTL clone RDR173 for 24 h. Release of IFN-γ in the supernatant was measured by ELISA. (b) Increasing concentrations of the patient-derived peptide RPHAIRRPLAL (filled symbols) and the donor-derived peptide RPRAIRRPLAL (open symbols) were pulsed on donor-derived EBV-LCL cells for 2 h at 37° C. Peptide-pulsed EBV-LCLs were cocultured with CTL clone RDR173 for 24 h. Release of IFN-γ in the supernatant was measured by ELISA.
EBV-LCL cells were seeded at 3×10^4 cells/well together with 5×10^3 T cells in 96-well round bottom plate. For blocking studies, target cells were preincubated with antibodies against HLA class I (w6/32), HLA class II (PdV5.2) or HLA-B/C alleles (B1.23.2) for 30 min at room temperature. After 24 h incubation at 37° C., release of IFN-γ in the supernatant was measured using standard ELISA (Sanguin, Amsterdam, the Netherlands).

Assay [2] relates to CTL clone RDR173. The experiment in a line: IFN-γ ELISA: recognition by CTL clone RDR173 of target cells pulsed with long peptide (processing and presentation). The class given is cell-based, human. As for the experimental part:
FIG. 7. Pulsing target cells with the 23-mer peptide leads to efficient processing and presentation LB-ECGF-1H epitope. CD 14+ cells were pulsed with titrated concentrations of the 11- and 23-mer hECGF-1 peptide for 4 h at 37° C. Target cells (3×10^4) were incubated with CTL clone RDR173 (10^4) for 24 h at 37° C. Release of IFN-γ in the supernatant was measured by ELISA.
FIG. 8. The LB-ECGF-1H epitope can be processed and presented by various target cells upon pulsing with the 23-mer peptide. HLA-B7-positive EBV-LCL cells (EBV), peripheral blood lymphocytes (PBL), phytohemagglutinin activated T cells (PHA blasts), CD14^+ cells (CD14) and CD19^+ cells (CD19) were pulsed with titrated concentrations of the 23-mer HECGF-1 peptide for 4 h at 37° C. Target cells (3×10^4) were incubated with CTL clone RDR173 (10^4) for 24 h at 37° C. Release of IFN-γ in the supernatant was measured by ELISA.
The 23-mer peptide […] containing the epitope (depicted in bold) was synthesized. Target cells were pulsed with titrated concentration of the long peptide for 4 hours at 37° C. and tested for recognition by CTL clone RDR173.
A general note: In an ELISA, binding on a coated surface is turned into a signal by an enzyme label.

Take “RPRAIRPLAL [LB-ECGF-1R, donor-derived peptide variant with Arg instead of His]”: in the assay with CTL clone RDR173 [1], the “Recognition by CTL clone RDR173 (IFN-γ release)” value is “not recognized”.
Same read-out and setting: the value for RPHAIRRPLAL [LB-ECGF-1H] was “the epitope recognized by CTL clone RDR173”.
For “RPAGGARTLRPHAIRRPLALRRA [23-mer peptide]”, the “Recognition by CTL clone RDR173 (IFN-γ release) after pulsing with long peptide” value in the assay on CTL clone RDR173 [2] (CD14+ cells pulsed 4 h at 37° C., titrated concentrations, FIG. 7) is “efficient recognition”. For the same sequence, in the assay with CTL clone RDR173 [2] (EBV-LCL, PHA blast and CD14+ cells pulsed 4 h at 37° C., FIG. 8), the “Processing and presentation of the epitope by various target cells” value was “have the ability to process and present the epitope”.
